Assays:
[1] = test system: Matricaria inodora; assay: Pre-emergence herbicidal activity, MATIN; format: in vivo; settings: 80 g/ha, WP formulation, scored visually after approximately 3 weeks vs untreated controls (100% = plants have died)
Text: (§1) Seeds of monocotyledonous or dicotyledonous weed plants or crop plants are placed in sandy loam in wood fiber pots and covered with soil. The compounds according to the invention, which are formulated as wettable powders (WP) are then applied to the surface of the soil cover in the form of an aqueous suspension or emulsion with a water application rate of 600 I/ha (converted), with addition of 0.2% wetter. After the treatment, the pots are placed in the greenhouse and maintained under good growth conditions for the test plants. After approximately 3 weeks, the activity of the preparation is scored visually in comparison with untreated controls (herbicidal activity in percent (%): 100% activity=plants have died, 0% activity=like control plants).

[2] = test system: Alopecurus myosuroides; assay: Pre-emergence herbicidal activity, ALOMY; format: in vivo; settings: 80 g/ha, WP formulation, scored visually after approximately 3 weeks vs untreated controls (100% = plants have died)
Text: as §1

[3] = test system: Stellaria media; assay: Pre-emergence herbicidal activity, STEME; format: in vivo; settings: 80 g/ha, WP formulation, scored visually after approximately 3 weeks vs untreated controls (100% = plants have died)
Text: as §1

[4] = test system: Alopecurus myosuroides; assay: Post-emergence herbicidal activity, ALOMY; format: in vivo; settings: dosage rate 80 g/ha, scored visually after approx. 3 weeks vs untreated controls
Experimental: (§2) Seeds of monocotyledonous or dicotyledonous weed plants or crop plants are placed in sandy loam in wood fiber pots, covered with soil and grown in the greenhouse under good growth conditions. 2 to 3 weeks after sowing, the test plants are treated in the one-leaf stage. The compounds according to the invention, which are formulated as wettable powders (WP), are then sprayed onto the green plant parts in the form of an aqueous suspension or emulsion with a water application rate of 600 I/ha (converted) with addition of 0.2% of wetter. After the test plants have been left to stand in the greenhouse for approximately 3 weeks under optimal growth conditions, the activity of the preparation is scored visually in comparison with untreated controls (herbicidal activity in percent (%): 100% activity=plants have died, 0% activity=like control plants).

[5] = test system: Echinochloa crus-galli; assay: Post-emergence herbicidal activity, ECHCG; format: in vivo; settings: dosage rate 80 g/ha, scored visually after approx. 3 weeks vs untreated controls
Experimental: as §2

[6] = test system: Lolium multiflorum; assay: Post-emergence herbicidal activity, LOLMU; format: in vivo; settings: dosage rate 80 g/ha, scored visually after approx. 3 weeks vs untreated controls
Experimental: as §2

[7] = test system: Abutilon theophrasti; assay: Post-emergence herbicidal activity, ABUTH; format: in vivo; settings: dosage rate 80 g/ha, scored visually after approx. 3 weeks vs untreated controls
Experimental: as §2

[8] = test system: Amaranthus retroflexus; assay: Post-emergence herbicidal activity, AMARE; format: in vivo; settings: dosage rate 80 g/ha, scored visually after approx. 3 weeks vs untreated controls
Experimental: as §2

[9] = test system: Pharbitis purpurea; assay: Post-emergence herbicidal activity, PHBPU; format: in vivo, Pharbitis/Ipomoea purpurea; settings: dosage rate 80 g/ha, scored visually after approx. 3 weeks vs untreated controls
Experimental: as §2

[10] = test system: Stellaria media; assay: Post-emergence herbicidal activity, STEME; format: in vivo; settings: dosage rate 80 g/ha, scored visually after approx. 3 weeks vs untreated controls
Experimental: as §2

[11] = test system: Viola tricolor; assay: Post-emergence herbicidal activity, VIOTR; format: in vivo; settings: dosage rate 80 g/ha, scored visually after approx. 3 weeks vs untreated controls
Experimental: as §2

## CCCC1CC(c2cccnc2S(=O)(=O)NC(=O)Nc2nc(C)nc(OC)n2)=NO1 (centres unmarked) [Ia-23]
[1]
  herbicidal activity in percent, MATIN: 80%

## COc1cc(OC)nc(NC(=O)NS(=O)(=O)c2ncccc2C2=NOC(C)C2)n1 (centres unmarked) [Ia-11]
[2]
  herbicidal activity in percent, ALOMY: 90%
[1]
  herbicidal activity in percent, MATIN: 80%
[3]
  herbicidal activity in percent, STEME: 80%
[4]
  herbicidal activity ALOMY: 90%
[5]
  herbicidal activity ECHCG: 100%
[6]
  herbicidal activity LOLMU: 100%
[7]
  herbicidal activity ABUTH: 90%
[8]
  herbicidal activity AMARE: 100%
[9]
  herbicidal activity PHBPU: 90%
[10]
  herbicidal activity STEME: 100%
[11]
  herbicidal activity VIOTR: 90%

## CCC1CC(c2cccnc2S(=O)(=O)NC(=O)Nc2nc(C)nc(OC)n2)=NO1 (centres unmarked) [Ia-18]
[5]
  herbicidal activity ECHCG: 80%

## CCCC1CC(c2cccnc2S(=O)(=O)NC(=O)Nc2nc(OC)cc(OC)n2)=NO1 (centres unmarked) [Ia-21]
[1]
  herbicidal activity in percent, MATIN: 80%
[3]
  herbicidal activity in percent, STEME: 80%
[4]
  herbicidal activity ALOMY: 80%
[5]
  herbicidal activity ECHCG: 80%
[6]
  herbicidal activity LOLMU: 80%
[7]
  herbicidal activity ABUTH: 80%
[8]
  herbicidal activity AMARE: 80%
[9]
  herbicidal activity PHBPU: 80%
[10]
  herbicidal activity STEME: 80%
[11]
  herbicidal activity VIOTR: 80%

## CCC1CC(c2cccnc2S(=O)(=O)NC(=O)Nc2nc(Cl)cc(OC)n2)=NO1 (centres unmarked) [Ia-20]
[2]
  herbicidal activity in percent, ALOMY: 80%
[4]
  herbicidal activity ALOMY: 80%
[5]
  herbicidal activity ECHCG: 80%
[6]
  herbicidal activity LOLMU: 80%
[8]
  herbicidal activity AMARE: 80%
[10]
  herbicidal activity STEME: 80%
[11]
  herbicidal activity VIOTR: 80%

## COc1cc(C)nc(NC(=O)NS(=O)(=O)c2ncccc2C2=NOC(C(C)C)C2)n1 (centres unmarked) [Ia-22]
[3]
  herbicidal activity in percent, STEME: 100%
[4]
  herbicidal activity ALOMY: 80%
[6]
  herbicidal activity LOLMU: 80%
[7]
  herbicidal activity ABUTH: 80%
[9]
  herbicidal activity PHBPU: 80%
[11]
  herbicidal activity VIOTR: 80%

## COc1cc(Cl)nc(NC(=O)NS(=O)(=O)c2ncccc2C2=NOCC2)n1 [Ia-1, N-[(4-Chloro-6-methoxypyrimidin-2-yl)carbamoyl]-3-(4,5-dihydroisoxazol-3-yl)-pyridine-2-sulfonamide]
[2]
  herbicidal activity in percent, ALOMY: 90%
[1]
  herbicidal activity in percent, MATIN: 90%
[3]
  herbicidal activity in percent, STEME: 90%
[4]
  herbicidal activity ALOMY: 80%
[5]
  herbicidal activity ECHCG: 100%
[6]
  herbicidal activity LOLMU: 90%
[7]
  herbicidal activity ABUTH: 90%
[8]
  herbicidal activity AMARE: 90%
[9]
  herbicidal activity PHBPU: 100%
[10]
  herbicidal activity STEME: 90%
[11]
  herbicidal activity VIOTR: 80%

## COc1nc(NC(=O)NS(=O)(=O)c2ncccc2C2=NOCC2)nc(OC)n1 [Ia-6]
[6]
  herbicidal activity LOLMU: 90%
[8]
  herbicidal activity AMARE: 80%

## COc1cc(C)nc(NC(=O)NS(=O)(=O)c2ncccc2C2=NOCC2)n1 [Ia-9]
[3]
  herbicidal activity in percent, STEME: 80%
[4]
  herbicidal activity ALOMY: 80%
[6]
  herbicidal activity LOLMU: 90%
[7]
  herbicidal activity ABUTH: 80%
[9]
  herbicidal activity PHBPU: 90%
[10]
  herbicidal activity STEME: 90%

## COc1cc(Cl)nc(NC(=O)NS(=O)(=O)c2ncccc2C2=NOC(C)C2)n1 (centres unmarked) [Ia-16]
[2]
  herbicidal activity in percent, ALOMY: 80%
[1]
  herbicidal activity in percent, MATIN: 80%
[4]
  herbicidal activity ALOMY: 80%
[5]
  herbicidal activity ECHCG: 80%
[6]
  herbicidal activity LOLMU: 90%
[8]
  herbicidal activity AMARE: 90%
[10]
  herbicidal activity STEME: 100%
[11]
  herbicidal activity VIOTR: 80%

## CCC1CC(c2cccnc2S(=O)(=O)NC(=O)Nc2nc(C)cc(OC)n2)=NO1 (centres unmarked) [Ia-19]
[2]
  herbicidal activity in percent, ALOMY: 80%
[3]
  herbicidal activity in percent, STEME: 80%
[4]
  herbicidal activity ALOMY: 90%
[5]
  herbicidal activity ECHCG: 80%
[6]
  herbicidal activity LOLMU: 80%
[8]
  herbicidal activity AMARE: 80%
[9]
  herbicidal activity PHBPU: 80%
[10]
  herbicidal activity STEME: 80%
[11]
  herbicidal activity VIOTR: 80%

## CCC1CC(c2cccnc2S(=O)(=O)NC(=O)Nc2nc(OC)cc(OC)n2)=NO1 (centres unmarked) [Ia-24]
[2]
  herbicidal activity in percent, ALOMY: 90%
[1]
  herbicidal activity in percent, MATIN: 90%
[3]
  herbicidal activity in percent, STEME: 90%
[5]
  herbicidal activity ECHCG: 100%
[7]
  herbicidal activity ABUTH: 80%
[8]
  herbicidal activity AMARE: 80%
[9]
  herbicidal activity PHBPU: 90%
[10]
  herbicidal activity STEME: 90%

Source: patent US20110028318A1, “HERBICIDAL COMPOUNDS BASED ON N-AZINYL-N'-PYRIDYLSULPHONYLUREAS” (Bayer CropScience AG, priority 2007, published 2011)
